From DBAASP
≈ marks a conversion by molar mass, not a printed value.

Columns and labels:
Experiment in all cases: ≥ marks a high value that may be exact or a test limit, other limits are often not marked, values filed in µg/mL are converted to µM
[1] = system: Serratia marcescens
[2] = system: Enterococcus faecium
[3] = system: Staphylococcus aureus
[4] = system: Pseudomonas aeruginosa
[5] = system: Streptococcus pneumoniae
[6] = system: Acinetobacter baumannii
[7] = system: Klebsiella pneumoniae
[8] = system: Enterococcus faecalis
[9] = system: Escherichia coli
[10] = system: Stenotrophomonas maltophilia
[11] = system: Staphylococcus aureus MR
[12] = system: Escherichia coli NCTC 10418
[13] = system: Enterococcus faecalis NCTC 12697
[14] = system: Staphylococcus aureus ATCC 12493
[15] = system: Staphylococcus aureus NCTC 10788
[16] = system: Pseudomonas aeruginosa ATCC 27853
[17] = system: Candida albicans NCTC 1467
[18] = system: Escherichia coli ATCC 25922
[19] = system: Pseudomonas aeruginosa H188
[20] = system: Escherichia coli DH5alpha

| MIC [1] | MIC [2] | MIC [3] | MIC [4] | MIC [5] | MIC [6] | MIC [7] | MIC [8] | MIC [9] | MIC [10] | MIC [11] | MIC [16] | MIC [18] | MIC [19] | MIC [20] | Structure (SMILES) | MIC [12] | MIC [13] | MIC [14] | MIC [15] | MIC [17] |
| --- | --- | --- | --- | --- | --- | --- | --- | --- | --- | --- | --- | --- | --- | --- | --- | --- | --- | --- | --- | --- |
| 7.65 µM (≈ 22.6 µg/mL) | 10.8 µM (≈ 32 µg/mL) | 3.84 µM (≈ 11.3 µg/mL) | 15.3 µM (≈ 45.3 µg/mL) | 3.84 µM (≈ 11.3 µg/mL) | 15.3 µM (≈ 45.3 µg/mL) | 3.84 µM (≈ 11.3 µg/mL) | 3.84 µM (≈ 11.3 µg/mL) | 2.71 µM (≈ 8.02 µg/mL) | 10.8 µM (≈ 32 µg/mL) | 3.84 µM (≈ 11.3 µg/mL) | – | – | – | – | CC[C@H](C)[C@H](NC(=O)[C@H](CC(C)C)NC(=O)CNC(=O)[C@H](CO)NC(=O)[C@@H](NC(=O)[C@H](CC(C)C)NC(=O)[C@@H](N)CC(N)=O)C(C)C)C(=O)N[C@@H](CCC(=O)O)C(=O)N[C@@H](C)C(=O)N[C@@H](CCCN=C(N)N)C(=O)N[C@@H](CCCCN)C(=O)N[C@@H](Cc1ccc(O)cc1)C(=O)N[C@@H](CC(C)C)C(=O)N[C@@H](CCC(=O)O)C(=O)N[C@@H](CCC(N)=O)C(=O)N[C@@H](CC(C)C)C(=O)N[C@@H](Cc1cnc[nH]1)C(=O)N[C@@H](CCCN=C(N)N)C(=O)N[C@@H](CCCCN)C(=O)N[C@@H](CC(C)C)C(=O)N[C@@H](CCCCN)C(=O)N[C@@H](CC(N)=O)C(=O)N[C@@H](CS)C(=O)N[C@@H](CCCCN)C(=O)N[C@H](C(=O)O)C(C)C [NLVSGLIEARKYLEQLHRKLKNCKV] | – | – | – | – | – |
| – | – | – | – | – | – | – | – | – | – | – | > 512 µM | – | – | – | CC[C@H](C)[C@H](NC(=O)CN)C(=O)N[C@@H](CCSC)C(=O)N[C@@H](CC(=O)O)C(=O)N[C@H](C(=O)N[C@H](C(=O)N[C@@H](CCCCN)C(=O)N[C@@H](CC(N)=O)C(=O)N[C@@H](C)C(=O)N[C@@H](C)C(=O)N[C@@H](CCCCN)C(=O)N[C@@H](CC(N)=O)C(=O)N[C@@H](CC(C)C)C(=O)N[C@@H](C)C(=O)NCC(=O)N[C@@H](CCC(N)=O)C(=O)N[C@@H](CC(C)C)C(=O)N[C@@H](CC(C)C)C(=O)N[C@@H](CC(=O)O)C(=O)N[C@@H](CCCCN)C(=O)N[C@@H](CC(C)C)C(=O)N[C@@H](CCCCN)C(=O)O)C(C)C)[C@@H](C)O [GIMDTVKNAAKNLAGQLLDKLK] | ≥ 128 µM | ≥ 512 µM | ≥ 512 µM | ≥ 256 µM | ≥ 512 µM |
| – | – | – | – | – | – | – | – | 2.69 µM (≈ 8.11 µg/mL) | – | – | 10.7 µM (≈ 32.4 µg/mL) | 10.7 µM (≈ 32.4 µg/mL) | 5.37 µM (≈ 16.2 µg/mL) | 5.37 µM (≈ 16.2 µg/mL) | CC[C@H](C)[C@H](NC(=O)[C@H](C)NC(=O)[C@H](CCCCN)NC(=O)[C@H](CC(C)C)NC(=O)[C@H](C)NC(=O)[C@@H](NC(=O)[C@H](Cc1cnc[nH]1)NC(=O)[C@H](CC(C)C)NC(=O)[C@H](CCCCN)NC(=O)[C@@H](NC(=O)[C@H](CCCCN)NC(=O)[C@H](CCCCN)NC(=O)[C@H](C)NC(=O)[C@H](CO)NC(=O)[C@H](CCCCN)NC(=O)[C@H](Cc1ccccc1)NC(=O)[C@@H](NC(=O)[C@H](CCCCN)NC(=O)[C@H](CC(C)C)NC(=O)[C@H](Cc1ccccc1)NC(=O)[C@H](CO)NC(=O)[C@H](CCCCN)NC(=O)[C@H](Cc1c[nH]c2ccccc12)NC(=O)[C@H](CCCCN)NC(C)=O)[C@@H](C)O)[C@@H](C)O)[C@@H](C)O)C(=O)N[C@@H](CO)C(=O)N[C@@H](CO)C(N)=O [KWKSFLKTFKSAKKTKLHTALKAISS] | – | – | – | – | – |

| Structure (SMILES) | MIC [1] | MIC [2] | MIC [3] | MIC [4] | MIC [5] | MIC [6] | MIC [7] | MIC [8] | MIC [9] | MIC [10] | MIC [11] | MIC [16] | MIC [18] | MIC [19] | MIC [20] | MIC [12] | MIC [13] | MIC [14] | MIC [15] | MIC [17] |
| --- | --- | --- | --- | --- | --- | --- | --- | --- | --- | --- | --- | --- | --- | --- | --- | --- | --- | --- | --- | --- |
| CC[C@H](C)[C@H](NC(=O)[C@H](CCCCN)NC(=O)[C@H](CCCCN)NC(=O)[C@H](C)NC(=O)[C@@H](NC(=O)[C@H](C)NC(=O)[C@H](CC(C)C)NC(=O)[C@H](CC(C)C)NC(=O)[C@H](C)NC(=O)[C@H](CCCCN)NC(=O)[C@H](CC(C)C)NC(=O)[C@H](CC(N)=O)NC(=O)[C@H](CC(C)C)NC(=O)[C@H](CCCN=C(N)N)NC(=O)[C@H](CCCN=C(N)N)NC(=O)[C@H](CCCN=C(N)N)NC(=O)[C@H](CCC(N)=O)NC(=O)[C@H](CCCN=C(N)N)NC(=O)[C@H](CCCN=C(N)N)NC(=O)[C@H](CCCCN)NC(=O)[C@H](CCCCN)NC(=O)[C@@H](N)CCCN=C(N)N)C(C)C)C(=O)N[C@@H](CC(C)C)C(N)=O [RKKRRQRRRLNLKALLAVAKKIL] | – | – | – | – | – | – | – | – | – | – | – | 4 µM (≈ 11.3 µg/mL) | – | – | – | 2 µM (≈ 5.66 µg/mL) | 8 µM (≈ 22.6 µg/mL) | 4 µM (≈ 11.3 µg/mL) | 4 µM (≈ 11.3 µg/mL) | 2 µM (≈ 5.66 µg/mL) |
